Measured values published in PMC8582737 (International Journal of Molecular Sciences, 2021).
Converted amounts (≈) assume the structure as drawn.

Key:
[1] = cited from earlier work
[2] = Solubility of KTZ, shake-flask method; assay type: physicochemical; conditions: for solubility at 24 h: 25 °C; for Improvement of KTZ solubility by TTO: 5% TTO
Procedure: Mixtures were mechanically shaken for 24 h at 25 °C ± 0.5 °C and allowed to stand for 24 h to attain equilibrium. Then, the samples were centrifuged at 4000 rpm for 15 min, followed by filtration through a CA membrane filter (0.45 μm), diluted appropriately with methanol, and analyzed by the HPLC method at 231 nm against a standard.

In the case of `CC(=O)N1CCN(c2ccc(OCC3COC(Cn4ccnc4)(c4ccc(Cl)cc4Cl)O3)cc2)CC1` (centres unmarked) [KTZ, Ketoconazole], the Solubility in water [1] is given as 0.0866 to 40.0 µg/mL, the “pH of highest stability” value [1] is given as 6–8 and the solubility at 24 h ([2]; Castor oil) is given as 93.5 ± 8.39 µg/mL (≈ 176 µM). The solubility at 24 h ([2]; Isopropyl myristate) was 94 ± 3.26 µg/mL (≈ 177 µM), the solubility at 24 h ([2]; Paraffin oil) was 17 ± 2.84 µg/mL (≈ 32 µM) and the solubility at 24 h ([2]; Water) was 9.56 ± 0.09 µg/mL (≈ 18 µM). The solubility at 24 h ([2]; castor oil with 5% TTO, oil or lipid, thermodynamic from solid, Castor oil + TTO 5%) was 155 ± 7.94 µg/mL, the “Improvement of KTZ solubility by TTO” value ([2]; castor oil) was “about 2 fold” and the solubility at 24 h ([2]; isopropyl myristate with 5% TTO, oil or lipid, thermodynamic from solid, Isopropyl myristate + TTO 5%) was 131 ± 5.13 µg/mL. For the same molecule, the “Improvement of KTZ solubility by TTO” value ([2]; isopropyl myristate) was “about 2 fold”, the solubility at 24 h ([2]; paraffin oil with 5% TTO, Paraffin oil + TTO 5%) was 80.1 ± 6.5 µg/mL and the “Improvement of KTZ solubility by TTO” value ([2]; paraffin oil) was 5 fold. For the same molecule, the solubility at 24 h ([2]; water with 5% TTO, aqueous with cosolvent or surfactant or cyclodextrin, thermodynamic from solid, Water + TTO 5%) was 35.7 ± 4.59 µg/mL and the “Improvement of KTZ solubility by TTO” value ([2]; water) was about 4 fold.
